Reference: patent US9976141B2, “Compositions and methods for inhibiting gene expression of Hif2alpha” (Arrowhead Madison Inc., priority 2015, dated 2018)

System: human (tumor) Hif2α (EPAS1) mRNA
Assay: Hif2α knockdown in orthotopic RCC tumor bearing mice, single injection of RNAi trigger-delivery polymer conjugate, RT-qPCR (Table 7)
Assay type: in vivo
Settings: single tail vein injection, relative to isotonic glucose
How it was run: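 A single intravenous dose of Hif2α RNAi trigger–delivery polymer conjugate, or isotonic glucose vehicle, was given to nude mice with subcapsular A498-SEAP renal tumours (about 5–6 weeks old). At the indicated time, tumour RNA was assayed by biplex TaqMan qPCR against CycA, and relative expression was calculated by ΔΔCT versus vehicle.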

[1] = RNAi trigger 50 μg, polymer 064 125 μg
[2] = RNAi trigger 80 μg, polymer 126 400 μg
[3] = RNAi trigger 100 μg, polymer 100A 250 μg

Substance	Relative Expression day 4 (Hif2α mRNA in kidney tumor) [1]	Relative Expression day 4 (Hif2α mRNA in kidney tumor) [2]	other results
AD02862 (antisense AUUCAUGAAAUCGUUACGUUG; sense UAUACGUAACGAUUUCAUGAAUT; Hif2alpha RNAi agent antisense strand; modified_base 2,4,6,8,10,14,16,18 /mod_base = “2′-deoxy-2′-fluoro corresponding nucleoside”; modified_base 1,3,5,7,9,11,12,13,15,17,19,20,21 /mod_base = “2′-O-methyl corresponding nucleoside”; modified_base 2,3,20,21 /mod_base = “5′-phosphorothioate corresponding nucleotide”; Hif2alpha RNAi agent sense strand; modified_base 2 modified base = “2′-hydroxy corresponding nucleoside”; modified_base 6,8,10,11,12,16,18,20 /mod_base = “2′-deoxy-2′-fluoro corresponding nucleoside”; modified_base 1,3,4,5,7,9,13,14,15,17,19,21,22 /mod_base = “2′-O-methyl correspon)	0.093	–	–
AD01291 (antisense TUUCAUGAAAUCGUUACGUUGGC; sense CAACGUAACGAUUUCAUGAAA; Hif2alpha RNAi agent antisense strand; modified_base 2,4,6,8,10,14,16,18,20 /mod_base = “2′-deoxy-2′-fluoro corresponding nucleoside”; modified_base 3,5,7,9,11,12,13,15,17,19,21,22,23 /mod_base = “2′-O-methyl corresponding nucleoside”; modified_base 2,3,22,23 /mod_base = “5′-phosphorothioate corresponding nucleotide”; Hif2alpha RNAi agent sense strand; modified_base 1,3,5,7,9,10,11,13,15,17,19,21 /mod_base = “2′-deoxy-2′-fluoro corresponding nucleoside”; modified_base 2,4,6,8,12,14,16,18,20 /mod_base = “2′-O-methyl corresponding nucleoside”; modified_base 2,3 /mod_base = “5′-phosphorothioate)	–	0.19	–
AD01256 (antisense TUUCAUGAAAUCGUUACGUTT; sense ACGUAACGAUUUCAUGAAAT; Hif2alpha RNAi agent antisense strand; modified_base 2,4,6,10,12,14,16,18 /mod_base = “2′-deoxy-2′-fluoro corresponding nucleoside”; modified_base 3,5,7,9,11,13,15,17,19 /mod_base = “2′-O-methyl corresponding nucleoside”; modified_base 8 /mod_base = “2′-3′ seco corresponding nucleotide”; modified_base 21 /mod_base = “5′-phosphorothioate corresponding nucleotide”; Hif2alpha RNAi agent sense strand; modified_base 1,3,5,7,9,11,13,15,17,19 /mod_base = “2′-deoxy-2′-fluoro corresponding nucleoside”; modified_base 2,4,6,8,10,12,14,16,18 /mod_base = “2′-O-methyl corresponding nucleoside”; modified_b)	–	0.22	–
AD02074 (antisense TUUCAUGAAAUCGUUACGUTT; sense ACGUAACGAUUUCAUGAAAT; Hif2alpha RNAi agent antisense strand; modified_base 2,4,6,8,10,14,16,18 /mod_base = “2′-deoxy-2′-fluoro corresponding nucleoside”; modified_base 3,5,7,9,11,12,13,15,17,19 /mod_base = “2′-O-methyl corresponding nucleoside”; modified_base 2,3,21 /mod_base = “5′-phosphorothioate corresponding nucleotide”; Hif2alpha RNAi agent sense strand; modified_base 1,3,5,7,8,9,11,13,15,17,19 /mod_base = “2′-deoxy-2′-fluoro corresponding nucleoside”; modified_base 2,4,6,10,12,14,16,18 /mod_base = “2′-O-methyl corresponding nucleoside”; modified_base 20 /mod_base = “3′-3′-linked nucleotide”; modified_base 1)	0.566	–	–
AD03259 (antisense AUUCAUGAAAUCGUUACGUTG; sense ACGUAACGAUUUCAUGAATT; Hif2alpha RNAi agent antisense strand; modified_base 2,8,10,14 /mod_base = “2′-deoxy-2′-fluoro corresponding nucleoside”; modified_base 1,3,4,5,6,7,9,11,12,13,15,16,17,18,19 /mod_base = “2′-O-methyl corresponding nucleoside”; modified_base 20,21 /mod_base = “2′-MOE nucleotide”; modified_base 2,3,20,21 /mod_base = “5′-phosphorothioate corresponding nucleotide”; Hif2alpha RNAi agent sense strand; modified_base 7,8,9 /mod_base = “2′-deoxy-2′-fluoro corresponding nucleoside”; modified_base 1,2,3,4,5,6,10,11,12,13,14,15,16,17 /mod_base = “2′-O-methyl corresponding nucleoside”; modified_base 20 /m)	0.179	–	–
AD01659 (antisense TUUCAUGAAAUCGUUACGUTT; sense ACGUAACGAUUUCAUGAAAT; Hif2alpha RNAi agent antisense strand; modified_base 2,4,6,8,10,12,14,15,18 /mod_base = “2′-deoxy-2′-fluoro corresponding nucleoside”; modified_base 3,5,7,9,11,13,16,17,19 /mod_base = “2′-O-methyl corresponding nucleoside”; modified_base 2,3,21 /mod_base = “5′-phosphorothioate corresponding nucleotide”; Hif2alpha RNAi agent sense strand; modified_base 1,3,4,7,9,11,13,15,17,19 /mod_base = “2′-deoxy-2′-fluoro corresponding nucleoside”; modified_base 2,5,6,8,10,12,14,16,18 /mod_base = “2′-O-methyl corresponding nucleoside”; modified_base 20 /mod_base = “3′-3′-linked nucleotide”; modified_base 1)	–	–	Relative Expression day 4 (Hif2α mRNA in kidney tumor) [3]: 0.249
AD01654 (antisense TUUCAUGAAAUCGUUACGUTT; sense ACGUAACGAUUUCAUGAAA; Hif2alpha RNAi agent antisense strand; modified_base 2,4,6,8,10,13,14,16,18 /mod_base = “2′-deoxy-2′-fluoro corresponding nucleoside”; modified_base 3,5,7,9,11,12,15,17,19 /mod_base = “2′-O-methyl corresponding nucleoside”; modified_base 2,21 /mod_base = “5′-phosphorothioate corresponding nucleotide”; Hif2alpha RNAi agent sense strand; modified_base 1,3,5,8,9,11,13,15,17,19 /mod_base = “2′-deoxy-2′-fluoro corresponding nucleoside”; modified_base 2,4,6,7,10,12,14,16,18 /mod_base = “2′-O-methyl corresponding nucleoside”; modified_base 2 /mod_base = “5′-phosphorothioate corresponding nucleotide)	–	–	Relative Expression day 4 (Hif2α mRNA in kidney tumor) [3]: 0.185
AD01406 (antisense TUUCAUGAAAUCGUUACGUCGGCUAU; sense UAUAUCGACGUAACGAUUUCAUGAAA; Hif2alpha RNAi agent antisense strand; modified_base 25 modified base = “2′-hydroxy corresponding nucleoside”; modified_base 2,4,6,10,12,14,16,18,20 /mod_base = “2′-deoxy-2′-fluoro corresponding nucleoside”; modified_base 3,5,7,9,11,13,15,17,19,21,22,23,24,26 /mod_base = “2′-O-methyl corresponding nucleoside”; modified_base 8 /mod_base = “2′-3′ seco corresponding nucleotide”; modified_base 2,24 /m; Hif2alpha RNAi agent sense strand; modified_base 2,4 modified base = “2′-hydroxy corresponding nucleoside”; modified_base 6,8,10,12,14,16,18,20,22,24,26 /mod_base = “2′-deoxy-2′-fluoro correspondi)	–	–	Relative Expression day 4 (Hif2α mRNA in kidney tumor) (RNAi trigger 150 μg, polymer 100A 300 μg): 0.45
AD01293 (antisense TUUCAUGAAAUCGUUACGUUGGCUGU; sense UAUAUCAACGUAACGAUUUCAUGAAA; Hif2alpha RNAi agent antisense strand; modified_base 25 modified base = “2′-hydroxy corresponding nucleoside”; modified_base 2,4,6,8,10,14,16,18,20 /mod_base = “2′-deoxy-2′-fluoro corresponding nucleoside”; modified_base 3,5,7,9,11,12,13,15,17,19,21,22,23,24,26 /mod_base = “2′-O-methyl corresponding nucleoside”; modified_base 2,3,23,24 /mod_base = “5′-phosphorothioate corresponding nucleotide”; Hif2alpha RNAi agent sense strand; modified_base 2,4 modified base = “2′-hydroxy corresponding nucleoside”; modified_base 6,8,10,12,14,15,16,18,20,22,24,26 /mod_base = “2′-deoxy-2′-fluoro correspondin)	–	0.20	–
